Assay results from US5952366A, “Alkyl ether analogs of chlorins having an N-substituted imide ring” (Health Research, Inc., priority 1998, dated 1999).

What was measured:
[1] = tested on: Radiation induced fibrosarcoma (RIF) tumors; test: In vivo tumor response (photodynamic therapy, RIF tumors in C3H mice); conditions: for Tumor Response (%): 705 nm, 135 J/cm^2, 24 h post injection
Protocol: Radiation induced fibrosarcoma (RIF) tumors, were implanted subcutanaceously into the axilla of 5-7 week old female C3H mice. When tumors grew to about 5 mm in diameter, the mice were injected with various doses of the photosensitizers. The mice (6 mice per group) were restrained in aluminum holders and each tumor illuminated with 135 J/cm^2 of light from a laser tuned at the longest wavelength absorption maximum of the photosensitizers at 705 nm. The percentage of short term control was recorded daily.
*Six mice/group (RIF tumor). 1.0 μmol/kg. 705 nm, 135J/cm^2 (24 h

[2] = human, in vivo; cited from earlier work
[3] = 1.0 μmol/kg, days 1-2, six mice/group

Compound | Tumor Response (%) ([1]; 1.0 μmol/kg, day 7) | Tumor Response (%) ([1]; 1.0 μmol/kg, day 14) | Tumor Response (%) ([1]; 1.0 μmol/kg, day 21) | Tumor Response (%) ([1]; 1.0 μmol/kg, day 30) | Tumor Response (%) ([1]; 1.0 μmol/kg, day 90) | Tumor Response (%) [1, 3] | further results
CCCCCCCOC(C)c1c(C)c2cc3nc(c4c5[nH]c(cc6nc(cc1[nH]2)C(C)=C6CC)c(C)c5C(=O)N(CCCCCC)C4=O)[C@@H](CCC(=O)OC)[C@@H]3C (stereo partly drawn) [R^1 = heptyl, R^2 = hexyl, heptyl ether analog of N-hexyl purpurin imide] | 100% | 100% | 100% | 100% | 83% | 100% | Tumor Response (%) ([1]; 0.25 μmol, day 7): 60%; Tumor Response (%) ([1]; 0.25 μmol, day 14): 20%; Tumor Response (%) ([1]; 0.25 μmol, day 21): 20%; Tumor Response (%) ([1]; 0.25 μmol, day 30): 20%; Tumor Response (%) ([1]; 0.25 μmol, day 90): 20%; Tumor Response (%) ([1]; 0.25 μmol, days 1-2): 100%; effectiveness in this series ([1]; dose of 1.0 μmol/kg): most effective
CCCCCCOC(C)c1c(C)c2cc3nc(c4c5[nH]c(cc6nc(cc1[nH]2)C(C)=C6CC)c(C)c5C(=O)N(CCC)C4=O)[C@@H](CCC(=O)OC)[C@@H]3C (stereo partly drawn) [R^1 = hexyl, R^2 = propyl] | 83% | 83% | 50% | 33% | 33% | 100% | Tumor Response (%) ([1]; 0.5 μmol, day 7): 66%; Tumor Response (%) ([1]; 0.5 μmol, day 14): 33%; Tumor Response (%) ([1]; 0.5 μmol, day 21): 17%; Tumor Response (%) ([1]; 0.5 μmol, day 30): 17%; Tumor Response (%) ([1]; 0.5 μmol, day 90): 17%; Tumor Response (%) ([1]; 0.5 μmol, days 1-2): 100%
CCCOC(C)c1c(C)c2cc3nc(c4c5[nH]c(cc6nc(cc1[nH]2)C(C)=C6CC)c(C)c5C(=O)N(CCC)C4=O)[C@@H](CCC(=O)OC)[C@@H]3C (stereo partly drawn) [R^1 = propyl, R^2 = propyl] | 33% | 17% | – | – | – | 100% | –
Photofrin | – | – | – | – | – | – | normal tissue clearance [2]: lacks rapid normal tissue clearance; skin photosensitization [2]: photosensitizes the skin
